Test results as given in ChEMBL document CHEMBL4330134, “Design, synthesis, and bioevaluation of a novel class of (E)-4-oxo-crotonamide derivatives as potent antituberculosis agents” (Bioorg Med Chem Lett, 2019).
In brackets after ≈: the same amount, converted by molar mass.

System: Mycobacterium tuberculosis
Experiment: Antimycobacterial activity against Mycobacterium tuberculosis H37Rv ATCC 27294 after 4 days by microplate Alamar blue assay
Format: functional
Conditions: H37Rv ATCC 27294, 96 h

SMILES	MIC
O=C(O)/C=C/C(=O)c1ccccc1	> 4 µg/mL
CC(C)OC(=O)/C=C/C(=O)C1CCCCC1	> 4 µg/mL
CC(=O)/C=C/C(=O)OCCNC(=O)OC(C)(C)C	> 4 µg/mL
CCCN(CCC)C(=O)/C=C/C(=O)c1ccc([N+](=O)[O-])cc1	1.89 µg/mL (≈ 6.21 µM)
CCN(C)C(=O)/C=C/C(=O)c1ccc(F)cc1	0.25 µg/mL (≈ 1.06 µM)
CCOC(=O)/C=C/C(=O)c1ccc(-c2ccccc2)cc1	0.23 µg/mL (≈ 0.82 µM)
O=C(O)/C=C/C(=O)c1ccc2c(c1)OCO2	> 4 µg/mL
COc1ccc(C(=O)/C=C/C(=O)OC(C)C)cc1OC	1.94 µg/mL (≈ 6.97 µM)
CN(C)C(=O)/C=C/C(=O)c1ccc2c(c1)OCO2	0.79 µg/mL (≈ 3.2 µM)
COc1ccc(C(=O)/C=C/C(=O)OCCNC(=O)OC(C)(C)C)cc1	> 4 µg/mL
CCN(C)C(=O)/C=C/C(=O)c1ccc([N+](=O)[O-])cc1	1.7 µg/mL (≈ 6.48 µM)
CCN(C)C(=O)/C=C/C(=O)c1cccc(Br)c1	1.52 µg/mL (≈ 5.13 µM)
COC(=O)/C=C/C(=O)c1cccc(OC)c1	0.39 µg/mL (≈ 1.77 µM)
CCOC(=O)/C=C/C(=O)c1ccc2c(c1)OCO2	0.49 µg/mL (≈ 1.97 µM)
CN(C)C(=O)/C=C/C(=O)c1ccc([N+](=O)[O-])cc1	0.93 µg/mL (≈ 3.75 µM)
Cc1ccc(C(=O)/C=C/C(=O)O)cc1	> 4 µg/mL
CN(C)C(=O)/C=C/C(=O)c1ccc(F)cc1	0.47 µg/mL (≈ 2.12 µM)
CN(C)C(=O)/C=C/C(=O)c1cccc(Br)c1	0.96 µg/mL (≈ 3.4 µM)
CCCN(CCC)C(=O)/C=C/C(=O)c1ccc(F)cc1	0.95 µg/mL (≈ 3.43 µM)
COC(=O)/C=C/C(=O)c1ccc(Cl)cc1Cl	1.85 µg/mL (≈ 7.14 µM)
COC(=O)/C=C/C(=O)c1ccc(Oc2ccccc2)cc1	0.87 µg/mL (≈ 3.08 µM)
Cc1ccc(C(=O)/C=C/C(=O)OCCNC(=O)OC(C)(C)C)cc1	> 4 µg/mL
CC(C)(C)OC(=O)NCCOC(=O)/C=C/C(=O)c1ccc(-c2ccccc2)cc1	1.23 µg/mL (≈ 3.11 µM)
COc1ccccc1C(=O)/C=C/C(=O)N(C)C	0.92 µg/mL (≈ 3.94 µM)
CCN(C)C(=O)/C=C/C(=O)c1ccccc1[N+](=O)[O-]	0.24 µg/mL (≈ 0.915 µM)
COC(=O)/C=C/C(=O)c1ccccc1	0.86 µg/mL (≈ 4.52 µM)
CCOC(=O)/C=C/C(=O)c1ccc(OC)c(OC)c1	0.82 µg/mL (≈ 3.1 µM)
CC(C)(C)OC(=O)NCCOC(=O)/C=C/C(=O)c1ccc(Oc2ccccc2)cc1	> 4 µg/mL

SMILES	MIC
COc1cccc(C(=O)/C=C/C(=O)O)c1	> 4 µg/mL
CCOC(=O)/C=C/C(=O)c1ccc(OCc2ccccc2)cc1	0.96 µg/mL (≈ 3.09 µM)
COC(=O)/C=C/C(C)=O	0.86 µg/mL (≈ 6.71 µM)
CCN(C)C(=O)/C=C/C(=O)c1ccccc1OC	0.95 µg/mL (≈ 3.84 µM)
CCOC(=O)/C=C/C(=O)c1ccc(OCC)cc1	0.54 µg/mL (≈ 2.17 µM)
CC(C)(C)OC(=O)NCCOC(=O)/C=C/C(=O)c1cccc2ccccc12	> 4 µg/mL
CC(C)OC(=O)/C=C/C(=O)c1ccccc1	0.78 µg/mL (≈ 3.57 µM)
CCOC(=O)/C=C/C(=O)C1CCCCC1	> 4 µg/mL
CN(C)C(=O)/C=C/C(=O)c1ccccc1[N+](=O)[O-]	1.51 µg/mL (≈ 6.08 µM)
CCCN(CCC)C(=O)/C=C/C(=O)c1cccc([N+](=O)[O-])c1	> 2 µg/mL
CCN(C)C(=O)/C=C/C(=O)c1ccc(Cl)cc1	0.24 µg/mL (≈ 0.953 µM)
COC(=O)/C=C/C(=O)c1ccc(C)cc1	0.37 µg/mL (≈ 1.81 µM)
CN(C)C(=O)/C=C/C(=O)c1ccc(Cl)c(Cl)c1	0.84 µg/mL (≈ 3.09 µM)
CCCN(CCC)C(=O)/C=C/C(=O)c1ccc(-c2ccccc2)cc1	1.4 µg/mL (≈ 4.17 µM)
O=C(O)/C=C/C(=O)c1ccco1	> 4 µg/mL
Cc1ccc(C(=O)/C=C/C(=O)OC(C)C)cc1	0.77 µg/mL (≈ 3.31 µM)
COc1ccc(OC)c(C(=O)/C=C/C(=O)OC(C)C)c1	1.48 µg/mL (≈ 5.32 µM)
CC(C)(C)OC(=O)NCCOC(=O)/C=C/C(=O)c1ccc2c(c1)CCO2	> 4 µg/mL
CCCN(CCC)C(=O)/C=C/C(=O)c1ccc(Cl)cc1Cl	> 2 µg/mL
COC(=O)/C=C/C(=O)c1cc(OC)ccc1OC	0.88 µg/mL (≈ 3.52 µM)
CCCN(CCC)C(=O)/C=C/C(=O)c1cccc(Br)c1	> 2 µg/mL
CCOC(=O)/C=C/C(=O)c1ccc(Oc2ccccc2)cc1	1.52 µg/mL (≈ 5.13 µM)
COc1ccc(C(=O)/C=C/C(=O)OCCNC(=O)OC(C)(C)C)cc1OC	> 4 µg/mL
CCCN(CCC)C(=O)/C=C/C(=O)c1ccc(OCC)cc1	1.91 µg/mL (≈ 6.3 µM)
CC(C)OC(=O)/C=C/C(=O)c1ccc(Br)cc1	0.41 µg/mL (≈ 1.38 µM)
COC(=O)/C=C/C(=O)C1CC1	> 4 µg/mL
CC(C)OC(=O)/C=C/C(=O)c1ccc([N+](=O)[O-])cc1	0.5 µg/mL (≈ 1.9 µM)
